This is an account of results in patent US12692261B2, “Substituted heterocyclic compounds and therapeutic uses thereof” (Bayer Aktiengesellschaft, priority 2020, dated 2026).

For assay [1], the target named is T1, full-length human CSNK1A1 (Homo sapiens, UniProt P48729).
T1 construct: N-terminal Glutathion-S-Transferase (GST) and full-length human CSNK1A1; purchased Life Technologies PV4174; host or cells: baculovirus infected insect cells
The experiment in a line: CSNK1A1 Assay 2 (ADP-Glo, 1 μM ATP, substrate biotin-Ahx-KRRRAL-pS-VASLPGL). The format is biochemical. The settings on record: Table 3, read-out: CSNK1A1 Assay 2 IC50 [mol/l] (median). The method in brief: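 GST-tagged full-length human CSNK1A1 from baculovirus-infected insect cells (about 0.0375 ng/μL), preincubated 15 min at 22 °C with compound in HEPES pH 7.5 buffer, with 1 μM ATP and biotin-Ahx-KRRRAL-pS-VASLPGL substrate. ADP formed read by ADP-Glo luminescence.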
A general note: ADP-Glo first removes unused ATP, then detects ADP through luciferase.

The target in assay [2] is T1, full-length human CSNK1A1. Briefly: CSNK1A1 High ATP Assay (ADP-Glo, 1 mM ATP).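 Note: 30 min kinase reaction at 22 °C with 100 µM peptide substrate.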 The format is biochemical. Particulars: Table 3, read-out: CSNK1A1 high ATP assay IC50 [mol/l] (median). In outline:
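GST-tagged full-length human CSNK1A1 from baculovirus-infected insect cells (typically about 0.4 ng/μL), pre-incubated with compound 15 min at 22 °C. Reaction with biotinylated peptide biotin-Ahx-KRRRAL-pS-VASLPGL at 1 mM ATP. ADP formed read by ADP-Glo luminescence.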

SMILES strings stand for the structures.

T1 sequence (P48729 whole entry): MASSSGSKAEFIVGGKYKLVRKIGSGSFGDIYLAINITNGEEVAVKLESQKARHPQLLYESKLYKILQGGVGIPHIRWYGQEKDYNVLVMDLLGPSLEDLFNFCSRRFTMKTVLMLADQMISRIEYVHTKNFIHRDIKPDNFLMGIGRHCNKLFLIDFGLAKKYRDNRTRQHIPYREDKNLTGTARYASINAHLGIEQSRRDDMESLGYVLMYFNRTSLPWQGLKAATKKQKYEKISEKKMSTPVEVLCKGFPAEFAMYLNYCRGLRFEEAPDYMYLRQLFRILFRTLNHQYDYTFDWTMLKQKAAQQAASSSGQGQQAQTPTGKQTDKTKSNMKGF

Turning to `O=C(Nc1cc(-c2[nH]c3cc(F)cnc3c2-c2ccccn2)ccn1)C(CC(F)F)c1ccc(F)cc1` (single isomer, unassigned; (+)) [Example 17, (+)-4,4-difluoro-2-(4-fluorophenyl)-N-{4-[6-fluoro-3-(pyridin-2-yl)-1H-pyrrolo[3,2-b]pyridin-2-yl]pyridin-2-yl}butanamide], the IC50 in assay [1] was found to be 1.7 nM; in assay [2] it was 5.48 nM.

In the case of `O=C(Nc1cc(-c2[nH]c3c(OC4CC4)cc(F)nc3c2-c2ccccn2)ccn1)C(CC(F)F)c1ccc(F)cc1` (stereo not drawn) [Example 45], the IC50 in assay [1] and in assay [2] was 22.3 nM in each case.

Regarding `O=C(Nc1cc(-c2[nH]c3c(OC[C@H]4COCCO4)cc(F)nc3c2-c2ccccn2)ccn1)C(CC(F)F)c1ccc(F)cc1` (mixture of isomers) [Example 50, (2RS)—N-{4-[7-{[(2R)-1,4-dioxan-2-yl]methoxy}-5-fluoro-3-(pyridin-2-yl)-1H-pyrrolo[3,2-b]pyridin-2-yl]pyridin-2-yl}-4,4-difluoro-2-(4-fluorophenyl)butanamide], the IC50 in assay [1] and in assay [2] was 9.34 nM in each case.
